Test results taken from PubChem BioAssay (NCI).
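These data come from cells grown in 96-well plates and exposed to compound for 48 hours at five concentrations. GI50 is the concentration that inhibits growth by half. TGI: total growth inhibition.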 Where a SMILES comes first, the peptide text is derived from it. [ ]: non-standard residue; d: D form. NMeY = CN[C@@H](Cc1ccc(O)cc1)C(=O)O; dNMeF = CN[C@H](Cc1ccccc1)C(=O)O; Sar = CNCC(=O)O

Key:
Test in all cases: NCI-60 cell line screen, 48 h
MDA-MB-231 breast = tested on: MDA-MB-231 breast
T-47D breast = tested on: T-47D breast
MCF7 breast = tested on: MCF7 breast
RPMI-8226 leukemia = tested on: RPMI-8226 leukemia
U251 CNS = tested on: U251 CNS
SW-620 colon = tested on: SW-620 colon

| SMILES | GI50 (MDA-MB-231 breast) | TGI (MDA-MB-231 breast) | GI50 (T-47D breast) | TGI (T-47D breast) | GI50 (MCF7 breast) | TGI (MCF7 breast) | GI50 (RPMI-8226 leukemia) | TGI (RPMI-8226 leukemia) | GI50 (U251 CNS) | TGI (U251 CNS) | GI50 (SW-620 colon) | TGI (SW-620 colon) |
| --- | --- | --- | --- | --- | --- | --- | --- | --- | --- | --- | --- | --- |
| CC[C@H](C)[C@@H]1NC(=O)[C@H](Cc2ccc(O)cc2)N(C)C(=O)[C@H](Cc2ccccc2)NC(=O)CN(C)C(=O)[C@@H]2CCCN2C(=O)[C@@H](Cc2ccccc2)N(C)C(=O)[C@H](CC(C)C)NC1=O (cyclo(F[NMeY]IL[dNMeF]P[Sar])) | 0.331 µM | 4.28 µM | 0.157 µM | 6.21 µM | 0.103 µM | 2.69 µM | 0.229 µM | 1.2 µM | 0.146 µM | 7.26 µM | 0.199 µM | 5.32 µM |
| CC(=O)OC1CCC2(C)C(CCC3C4CC=C(C(C)=O)C4(C)OC(=O)CC32)C1 (stereo unspecified) | 2.05 µM | 4.33 µM | 1.64 µM | 3.4 µM | 1.4 µM | 3.01 µM | 1.79 µM | 4.86 µM | 10.1 µM | 21.8 µM | 1.52 µM | 3.43 µM |
| CCOC(=O)c1ccc(Nc2sc(C(=O)c3cccc([N+](=O)[O-])c3)c(N)c2C#N)cc1 | 1.1 µM | 9.63 µM | 0.141 µM | > 68.5 µM | 0.102 µM | 13.2 µM | 0.333 µM | 20.3 µM | 0.0607 µM | 3.86 µM | 0.0591 µM | 6.63 µM |
| Cc1ncc(C(=O)Nc2ccc(CN3CCN(C)CC3)c(C(F)(F)F)c2)cc1C#Cc1cnc(N)c2ncccc12 | 0.0801 µM | 1.18 µM | 5.36 µM | 27.4 µM | 1.61 µM | 4.36 µM | 0.538 µM | 3.98 µM | 1.07 µM | 2.65 µM | 0.208 µM | 2.9 µM |
| Nc1c(C(=O)c2cccc(C#CCN3CCOCC3)c2)cnn1-c1ccc(F)cc1 | > 25 µM | > 25 µM | 8.83 µM | > 25 µM | 11.7 µM | > 25 µM | > 20.8 µM | > 25 µM | > 21 µM | > 25 µM | 9.28 µM | > 25 µM |
| O=C(NC(=S)NNC(=S)NNc1ccccc1)c1ccccc1 | 12.9 µM | > 100 µM | 3.24 µM | > 100 µM | 2.92 µM | > 100 µM | 3.55 µM | > 100 µM | 8.36 µM | > 100 µM | 4.09 µM | > 100 µM |
| COc1ccc2[nH]c(=O)c(/C=C/C(=O)/C=C/c3ccc(O)c(OC)c3)cc2c1 | 1.92 µM | 3.78 µM | 2.63 µM | 13.9 µM | 0.388 µM | 1.89 µM | 0.359 µM | 1.65 µM | 1.17 µM | 2.68 µM | 1.13 µM | 3.33 µM |
| COc1cccc(-n2ncc3c(N/N=C/c4ccc(S(C)(=O)=O)cc4)ncnc32)c1 | 9.09 µM | > 24.1 µM | 7.4 µM | > 21 µM | 9.87 µM | > 25 µM | > 22.9 µM | > 25 µM | 4.99 µM | 17.6 µM | > 25 µM | > 25 µM |
| COc1cc2nc(N3CCCC3)nc(Nc3ccccc3)c2cc1OC | 1.56 µM | 3.11 µM | – | – | 0.637 µM | 2.29 µM | 1.07 µM | 4.3 µM | 1.02 µM | 2.45 µM | 1.52 µM | 3.17 µM |
| O=Cc1ccc(Oc2c3ccccc3nc3occc23)cc1 | – | 22.5 µM | 11.4 µM | 36.3 µM | 13.8 µM | 32.2 µM | 12.2 µM | 48.3 µM | – | – | – | – |
| COc1ccc2c(c1)sc1nc(-c3ccccc3)c(-c3ccc(O)c(OC)c3)n12 | 9.8 µM | > 100 µM | 83.1 µM | > 100 µM | 28.6 µM | > 100 µM | – | – | 5.28 µM | > 100 µM | 5.15 µM | > 100 µM |
| O=C(O)C[O][Sb][O]CC(=O)O | > 100 µM | > 100 µM | > 100 µM | > 100 µM | – | – | – | – | > 100 µM | > 100 µM | > 100 µM | > 100 µM |
| ICCC(c1ccccc1)(c1ccccc1)c1ccccc1 | 4.41 µM | 19.8 µM | 14 µM | 34.1 µM | 10.6 µM | 26.7 µM | 3.72 µM | 17.1 µM | 3.48 µM | 11.3 µM | – | – |
| CC1=CC2=C(C(N)=O)C(=O)OC2(C)C(c2ccccc2)C1 (stereo unspecified) | – | > 100 µM | – | – | – | > 100 µM | – | > 100 µM | – | > 100 µM | – | > 100 µM |
| CC[C@H](C)[C@H](NC(=O)Nc1ccccc1)C(=O)N(C)[C@H](C[C@@H](OC(C)=O)c1nc(C(=O)N[C@@H](Cc2ccccc2)C[C@H](C)C(=O)OC)cs1)C(C)C | 3.36 µM | 22.1 µM | – | – | 1.27 µM | > 100 µM | 2.03 µM | > 100 µM | 3.16 µM | > 100 µM | 3.58 µM | > 100 µM |
| CN(C)CCNC(=O)Cn1ccc(=O)c2ccc([N+](=O)[O-])cc21 | – | – | – | > 100 µM | – | > 100 µM | – | > 100 µM | – | > 100 µM | – | > 100 µM |
